Data from ChEMBL document CHEMBL1909046, “DrugMatrix in vitro pharmacology data”.

Molecular target: T1, Estrogen receptor (Homo sapiens, UniProt P03372); also: in other assays of this panel Not Active means under 50% inhibition at 10 µM
T1 sequence (P03372 whole entry): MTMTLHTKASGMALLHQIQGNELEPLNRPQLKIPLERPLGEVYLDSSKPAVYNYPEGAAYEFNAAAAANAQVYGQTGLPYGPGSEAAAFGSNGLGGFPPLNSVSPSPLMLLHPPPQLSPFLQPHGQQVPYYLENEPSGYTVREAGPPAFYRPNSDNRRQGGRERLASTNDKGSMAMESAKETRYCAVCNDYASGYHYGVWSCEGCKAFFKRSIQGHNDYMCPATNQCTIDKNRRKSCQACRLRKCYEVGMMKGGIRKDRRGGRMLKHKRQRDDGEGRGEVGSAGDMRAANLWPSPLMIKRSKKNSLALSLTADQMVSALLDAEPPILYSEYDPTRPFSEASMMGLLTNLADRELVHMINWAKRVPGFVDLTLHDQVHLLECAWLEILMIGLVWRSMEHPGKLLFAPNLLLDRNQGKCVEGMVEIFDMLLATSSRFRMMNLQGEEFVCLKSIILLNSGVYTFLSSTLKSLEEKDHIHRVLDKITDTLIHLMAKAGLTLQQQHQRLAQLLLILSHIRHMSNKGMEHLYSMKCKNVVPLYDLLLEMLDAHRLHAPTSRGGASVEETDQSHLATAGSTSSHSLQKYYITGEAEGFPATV
Settings: sf9

| SMILES | IC50 |
| --- | --- |
| NCCCNCCSP(=O)(O)O [AMIFOSTINE] | Not Active |
| CN(C)CCC=C1c2ccccc2CCc2ccccc21 [AMITRIPTYLINE] | Not Active |
| CC(=O)Oc1ccccc1C(=O)O [ASPIRIN] | Not Active |
| CC(=O)OC[C@H]1O[C@@H](n2ncc(=O)[nH]c2=O)[C@H](OC(C)=O)[C@@H]1OC(C)=O [AZARIBINE] | Not Active |
| O=C(O)CCNC(=O)c1ccc(/N=N/c2ccc(O)c(C(=O)O)c2)cc1 [BALSALAZIDE] | Not Active |
| ClC(Cl)(Cl)Cl [CARBON TETRACHLORIDE] | Not Active |
| CNC1=Nc2ccc(Cl)cc2C(c2ccccc2)=[N+]([O-])C1 [CHLORDIAZEPOXIDE] | Not Active |
| CCCNC(=O)NS(=O)(=O)c1ccc(Cl)cc1 [CHLORPROPAMIDE] | Not Active |
| O=C(O)CC(O)(CC(=O)O)C(=O)O [CITRIC ACID] | Not Active |
| CC(C)NCC(O)c1ccccc1Cl (configuration not stated) [CLORPRENALINE] | Not Active |
| CN1CCN(C(c2ccccc2)c2ccccc2)CC1 [CYCLIZINE] | Not Active |
| CN1C[C@@H]2C[C@H]1CN2c1cc2c(cc1F)c(=O)c(C(=O)O)cn2C1CC1 [DANOFLOXACIN] | Not Active |
| O=C(O)c1cc(-c2ccc(F)cc2F)ccc1O [DIFLUNISAL] | Not Active |
| CC1=NN(c2ccccc2)C(=O)C1 [EDARAVONE] | Not Active |
| CC(C)C[C@H]1C(=O)N2CCC[C@H]2[C@]2(O)O[C@](NC(=O)[C@@H]3C=C4c5cccc6[nH]cc(c56)C[C@H]4N(C)C3)(C(C)C)C(=O)N12 [ERGOCRYPTINE] | Not Active |
| CC(C)(C(=O)O)c1ccc(C(O)CCCN2CCC(C(O)(c3ccccc3)c3ccccc3)CC2)cc1 (configuration not stated) [FEXOFENADINE] | Not Active |
| CN1CCN(c2c(F)cc3c(=O)c(C(=O)O)cn(CCF)c3c2F)CC1 [FLEROXACIN] | Not Active |

Molecular target: T2, Alpha-1A adrenergic receptor (Rattus norvegicus, UniProt P43140)
T2 sequence (P43140 whole entry): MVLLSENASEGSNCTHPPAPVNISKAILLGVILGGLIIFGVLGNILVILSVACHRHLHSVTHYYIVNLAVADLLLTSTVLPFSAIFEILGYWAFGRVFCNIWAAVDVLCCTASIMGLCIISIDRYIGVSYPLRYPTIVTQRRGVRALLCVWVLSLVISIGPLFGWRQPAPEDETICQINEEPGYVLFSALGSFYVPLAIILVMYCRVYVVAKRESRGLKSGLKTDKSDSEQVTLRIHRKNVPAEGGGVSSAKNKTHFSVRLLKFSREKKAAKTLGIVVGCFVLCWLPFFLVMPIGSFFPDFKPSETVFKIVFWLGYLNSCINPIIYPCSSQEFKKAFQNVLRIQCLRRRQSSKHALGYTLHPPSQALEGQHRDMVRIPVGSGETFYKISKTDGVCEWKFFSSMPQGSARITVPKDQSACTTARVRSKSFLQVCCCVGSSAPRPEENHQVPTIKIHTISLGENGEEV
Experiment: DRUGMATRIX: Alpha-1A adrenergic receptor radioligand binding (ligand: prazosin)
Assay type: cell membranes, Wistar, Submaxillary gland, Membrane
Settings: Not Active = under 50% inhibition at 10 µM

| SMILES | IC50 |
| --- | --- |
| NCCCNCCSP(=O)(O)O [AMIFOSTINE] | Not Active |
| CC(=O)Oc1ccccc1C(=O)O [ASPIRIN] | Not Active |
| CC(=O)OC[C@H]1O[C@@H](n2ncc(=O)[nH]c2=O)[C@H](OC(C)=O)[C@@H]1OC(C)=O [AZARIBINE] | Not Active |
| O=C(O)CCNC(=O)c1ccc(/N=N/c2ccc(O)c(C(=O)O)c2)cc1 [BALSALAZIDE] | Not Active |
| ClC(Cl)(Cl)Cl [CARBON TETRACHLORIDE] | Not Active |
| CNC1=Nc2ccc(Cl)cc2C(c2ccccc2)=[N+]([O-])C1 [CHLORDIAZEPOXIDE] | Not Active |
| CCCNC(=O)NS(=O)(=O)c1ccc(Cl)cc1 [CHLORPROPAMIDE] | Not Active |
| O=C(O)CC(O)(CC(=O)O)C(=O)O [CITRIC ACID] | Not Active |
| CC(C)NCC(O)c1ccccc1Cl (configuration not stated) [CLORPRENALINE] | Not Active |
| CN1CCN(C(c2ccccc2)c2ccccc2)CC1 [CYCLIZINE] | Not Active |
| CN1C[C@@H]2C[C@H]1CN2c1cc2c(cc1F)c(=O)c(C(=O)O)cn2C1CC1 [DANOFLOXACIN] | Not Active |
| O=C(O)c1cc(-c2ccc(F)cc2F)ccc1O [DIFLUNISAL] | Not Active |
| CC1=NN(c2ccccc2)C(=O)C1 [EDARAVONE] | Not Active |
| CC(C)(C(=O)O)c1ccc(C(O)CCCN2CCC(C(O)(c3ccccc3)c3ccccc3)CC2)cc1 (configuration not stated) [FEXOFENADINE] | Not Active |
| CN1CCN(c2c(F)cc3c(=O)c(C(=O)O)cn(CCF)c3c2F)CC1 [FLEROXACIN] | Not Active |

Same assay, conditions: Not Active = under 50% inhibition at 10 µM; read-out: IC50

| SMILES | IC50 |
| --- | --- |
| CN(C)CCC=C1c2ccccc2CCc2ccccc21 [AMITRIPTYLINE] | 14 nM |
| CC(C)C[C@H]1C(=O)N2CCC[C@H]2[C@]2(O)O[C@](NC(=O)[C@@H]3C=C4c5cccc6[nH]cc(c56)C[C@H]4N(C)C3)(C(C)C)C(=O)N12 [ERGOCRYPTINE] | 11 nM |

Same assay, conditions: Not Active = under 50% inhibition at 10 µM; read-out: Ki

| SMILES | Ki |
| --- | --- |
| CN(C)CCC=C1c2ccccc2CCc2ccccc21 [AMITRIPTYLINE] | 5.6 nM |
| CC(C)C[C@H]1C(=O)N2CCC[C@H]2[C@]2(O)O[C@](NC(=O)[C@@H]3C=C4c5cccc6[nH]cc(c56)C[C@H]4N(C)C3)(C(C)C)C(=O)N12 [ERGOCRYPTINE] | 4.28 nM |

Molecular target: T3, Cytochrome P450 2A6 (Homo sapiens, UniProt P11509); also: in other assays of this panel Not Active means under 50% inhibition at 10 µM
T3 sequence (P11509 whole entry): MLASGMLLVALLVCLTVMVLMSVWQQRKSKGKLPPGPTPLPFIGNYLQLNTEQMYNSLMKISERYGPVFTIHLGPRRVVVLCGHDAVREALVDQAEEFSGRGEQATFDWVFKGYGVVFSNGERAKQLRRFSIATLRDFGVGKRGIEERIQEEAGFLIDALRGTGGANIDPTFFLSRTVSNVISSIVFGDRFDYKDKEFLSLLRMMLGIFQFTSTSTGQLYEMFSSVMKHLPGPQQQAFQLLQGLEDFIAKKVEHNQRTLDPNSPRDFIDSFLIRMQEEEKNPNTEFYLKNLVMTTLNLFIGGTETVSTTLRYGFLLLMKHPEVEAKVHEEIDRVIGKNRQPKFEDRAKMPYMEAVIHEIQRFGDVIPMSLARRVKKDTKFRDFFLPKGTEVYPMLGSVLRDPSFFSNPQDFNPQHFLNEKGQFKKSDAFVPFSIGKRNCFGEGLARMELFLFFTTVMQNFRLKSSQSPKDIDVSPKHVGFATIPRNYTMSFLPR
Settings: bti-tn-5b1-4

| SMILES | IC50 | Ki |
| --- | --- | --- |
| NCCCNCCSP(=O)(O)O [AMIFOSTINE] | Not Active | Not Active |
| CN(C)CCC=C1c2ccccc2CCc2ccccc21 [AMITRIPTYLINE] | Not Active | Not Active |
| CC(=O)Oc1ccccc1C(=O)O [ASPIRIN] | Not Active | Not Active |
| CC(=O)OC[C@H]1O[C@@H](n2ncc(=O)[nH]c2=O)[C@H](OC(C)=O)[C@@H]1OC(C)=O [AZARIBINE] | Not Active | Not Active |
| O=C(O)CCNC(=O)c1ccc(/N=N/c2ccc(O)c(C(=O)O)c2)cc1 [BALSALAZIDE] | Not Active | Not Active |
| ClC(Cl)(Cl)Cl [CARBON TETRACHLORIDE] | Not Active | Not Active |
| CNC1=Nc2ccc(Cl)cc2C(c2ccccc2)=[N+]([O-])C1 [CHLORDIAZEPOXIDE] | Not Active | Not Active |
| CCCNC(=O)NS(=O)(=O)c1ccc(Cl)cc1 [CHLORPROPAMIDE] | Not Active | Not Active |
| O=C(O)CC(O)(CC(=O)O)C(=O)O [CITRIC ACID] | Not Active | Not Active |
| CC(C)NCC(O)c1ccccc1Cl (configuration not stated) [CLORPRENALINE] | Not Active | Not Active |
| CN1CCN(C(c2ccccc2)c2ccccc2)CC1 [CYCLIZINE] | Not Active | Not Active |
| CN1C[C@@H]2C[C@H]1CN2c1cc2c(cc1F)c(=O)c(C(=O)O)cn2C1CC1 [DANOFLOXACIN] | Not Active | Not Active |
| O=C(O)c1cc(-c2ccc(F)cc2F)ccc1O [DIFLUNISAL] | Not Active | Not Active |
| CC1=NN(c2ccccc2)C(=O)C1 [EDARAVONE] | Not Active | Not Active |
| CC(C)C[C@H]1C(=O)N2CCC[C@H]2[C@]2(O)O[C@](NC(=O)[C@@H]3C=C4c5cccc6[nH]cc(c56)C[C@H]4N(C)C3)(C(C)C)C(=O)N12 [ERGOCRYPTINE] | Not Active | Not Active |
| CC(C)(C(=O)O)c1ccc(C(O)CCCN2CCC(C(O)(c3ccccc3)c3ccccc3)CC2)cc1 (configuration not stated) [FEXOFENADINE] | Not Active | Not Active |
| CN1CCN(c2c(F)cc3c(=O)c(C(=O)O)cn(CCF)c3c2F)CC1 [FLEROXACIN] | Not Active | Not Active |

Molecular target: T4, Leukotriene C4 synthase (Cavia porcellus, UniProt A6XA80);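 also: enzyme inhibition assay of leukotriene C4 synthase, using LTA4 as the substrate; in other assays of this panel Not Active means under 50% inhibition at 10 µM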
T4 sequence (A6XA80 whole entry): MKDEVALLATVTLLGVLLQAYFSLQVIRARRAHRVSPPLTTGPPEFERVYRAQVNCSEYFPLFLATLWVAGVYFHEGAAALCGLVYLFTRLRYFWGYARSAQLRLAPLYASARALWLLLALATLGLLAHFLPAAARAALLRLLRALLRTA
Assay type: tissue-based, Lung
Settings: not given

| SMILES | IC50 |
| --- | --- |
| NCCCNCCSP(=O)(O)O [AMIFOSTINE] | Not Active |
| CN(C)CCC=C1c2ccccc2CCc2ccccc21 [AMITRIPTYLINE] | Not Active |
| CC(=O)Oc1ccccc1C(=O)O [ASPIRIN] | Not Active |
| CC(=O)OC[C@H]1O[C@@H](n2ncc(=O)[nH]c2=O)[C@H](OC(C)=O)[C@@H]1OC(C)=O [AZARIBINE] | Not Active |
| O=C(O)CCNC(=O)c1ccc(/N=N/c2ccc(O)c(C(=O)O)c2)cc1 [BALSALAZIDE] | Not Active |
| ClC(Cl)(Cl)Cl [CARBON TETRACHLORIDE] | Not Active |
| CNC1=Nc2ccc(Cl)cc2C(c2ccccc2)=[N+]([O-])C1 [CHLORDIAZEPOXIDE] | Not Active |
| CCCNC(=O)NS(=O)(=O)c1ccc(Cl)cc1 [CHLORPROPAMIDE] | Not Active |
| O=C(O)CC(O)(CC(=O)O)C(=O)O [CITRIC ACID] | Not Active |
| CC(C)NCC(O)c1ccccc1Cl (configuration not stated) [CLORPRENALINE] | Not Active |
| CN1CCN(C(c2ccccc2)c2ccccc2)CC1 [CYCLIZINE] | Not Active |
| CN1C[C@@H]2C[C@H]1CN2c1cc2c(cc1F)c(=O)c(C(=O)O)cn2C1CC1 [DANOFLOXACIN] | Not Active |
| O=C(O)c1cc(-c2ccc(F)cc2F)ccc1O [DIFLUNISAL] | Not Active |
| CC1=NN(c2ccccc2)C(=O)C1 [EDARAVONE] | Not Active |
| CC(C)C[C@H]1C(=O)N2CCC[C@H]2[C@]2(O)O[C@](NC(=O)[C@@H]3C=C4c5cccc6[nH]cc(c56)C[C@H]4N(C)C3)(C(C)C)C(=O)N12 [ERGOCRYPTINE] | Not Active |
| CC(C)(C(=O)O)c1ccc(C(O)CCCN2CCC(C(O)(c3ccccc3)c3ccccc3)CC2)cc1 (configuration not stated) [FEXOFENADINE] | Not Active |
| CN1CCN(c2c(F)cc3c(=O)c(C(=O)O)cn(CCF)c3c2F)CC1 [FLEROXACIN] | Not Active |
